From paper PMC9205682 (Biochimica et biophysica acta. Biomembranes, 2021)

Target: Mycobacterial membrane protein large 3 (Mmpl3) (Mycolicibacterium smegmatis, UniProt A0QP27)
Assay: MicroScale Thermophoresis
Format: binding

Sequence of Mycobacterial membrane protein large 3 (Mmpl3) (A0QP27 whole entry): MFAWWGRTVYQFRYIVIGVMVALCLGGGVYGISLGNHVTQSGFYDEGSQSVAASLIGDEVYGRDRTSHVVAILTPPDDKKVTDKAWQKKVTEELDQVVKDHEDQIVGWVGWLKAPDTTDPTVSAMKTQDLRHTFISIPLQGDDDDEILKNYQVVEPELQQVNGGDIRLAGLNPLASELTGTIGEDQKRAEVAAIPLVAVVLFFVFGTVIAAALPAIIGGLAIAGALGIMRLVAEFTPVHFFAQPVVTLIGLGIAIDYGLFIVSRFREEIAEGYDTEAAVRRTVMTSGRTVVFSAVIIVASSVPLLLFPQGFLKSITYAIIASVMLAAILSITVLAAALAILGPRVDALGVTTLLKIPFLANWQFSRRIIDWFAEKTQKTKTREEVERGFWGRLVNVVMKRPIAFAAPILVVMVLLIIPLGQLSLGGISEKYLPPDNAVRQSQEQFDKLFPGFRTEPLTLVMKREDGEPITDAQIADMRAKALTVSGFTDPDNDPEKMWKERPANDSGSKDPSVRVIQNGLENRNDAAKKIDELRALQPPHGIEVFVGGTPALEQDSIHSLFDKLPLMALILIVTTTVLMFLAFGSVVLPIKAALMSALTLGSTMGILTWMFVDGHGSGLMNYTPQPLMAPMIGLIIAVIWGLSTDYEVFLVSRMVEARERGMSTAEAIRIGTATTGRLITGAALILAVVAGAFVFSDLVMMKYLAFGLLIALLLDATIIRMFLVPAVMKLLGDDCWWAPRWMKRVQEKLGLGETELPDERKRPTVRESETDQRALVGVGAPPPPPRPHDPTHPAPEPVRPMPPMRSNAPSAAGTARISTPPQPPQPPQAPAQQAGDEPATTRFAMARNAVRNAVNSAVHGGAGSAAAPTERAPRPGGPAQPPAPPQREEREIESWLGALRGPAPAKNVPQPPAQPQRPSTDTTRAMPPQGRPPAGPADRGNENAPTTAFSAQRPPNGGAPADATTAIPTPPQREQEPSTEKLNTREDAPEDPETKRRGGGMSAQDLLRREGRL

Work on CC(C)=CCC/C(C)=C/CNCCNC1C2CC3CC(C2)CC1C3 (stereo not shown) [SQ109] yielded a Kd of 1560 nM.
